Patent US20170266186A1, “USE OF INHIBITORS OF BRUTON'S TYROSINE KINASE (BTK)” (Pharmacyclics LLC, priority 2011, published 2017)

Key:
Ramos = test: growth inhibition by PCI-32765, Ramos; format: cell-based; conditions: Homo sapiens, Burkitt's
DHL-6 = test: growth inhibition by PCI-32765, DHL-6; format: cell-based; conditions: Homo sapiens; DHL-6, DLBCL, GCB
WSU-NHL = test: growth inhibition by PCI-32765, WSU-NHL; format: cell-based; conditions: Homo sapiens, FL-transformed
DHL-4 = test: growth inhibition by PCI-32765, DHL-4; format: cell-based; conditions: Homo sapiens; DHL-4, DLBCL, GCB
[1] = design: species or system human; conditions: in vivo
LY19 = test: growth inhibition by PCI-32765, LY19; format: cell-based; conditions: Homo sapiens; LY19, DLBCL, GCB (CARD11)
Mino cells = test: migration assay, CXCL13 stimulated; conditions: dose-dependently from 1 nM to 1 μM
Jeko-1 = test: growth inhibition by PCI-32765, Jeko-1; format: cell-based; conditions: Homo sapiens; Jeko-1, Mantle cell
[2] = test system: plasma chemokines and cytokines; test: plasma chemokine and cytokine concentrations of ibrutinib treated MCL patients
Mino = test: growth inhibition by PCI-32765, Mino; format: cell-based; conditions: Homo sapiens, Mantle cell
primary MCL cells = test: adhesion of primary MCL cells; conditions: Homo sapiens, read-out: inhibition of CXCL12 or CXCL13 activated adhesion to VCAM1 and BCR stimulated adhesion to fibronectin
DOHH2 = test: growth inhibition by PCI-32765, DOHH2; format: cell-based; conditions: Homo sapiens, DOHH-2; DOHH2, FL-transformed
Jekol cells = test: adhesion assay, chemokine-mediated, Jekol; conditions: Homo sapiens, read-out: inhibition of adhesion to VCAM1 or fibronectin following CXCL12 or CXCL13 activations
DoHH2 cells = test: Alamar blue assay in DoHH2 cells; format: cell-based
MCL patients = test: ALC and tumor volume (SPD) in MCL patients treated with ibrutinib
LY10 = test: growth inhibition by PCI-32765, LY10; format: cell-based; conditions: Homo sapiens; LY10, DLBCL, ABC
clinical = conditions: human, plasma; for AUC(0-inf): Mean (CV) AUC0-∞; for AUC(0-t): Mean AUC0-24h, steady state (Day 8)
LY3 = test: growth inhibition by PCI-32765, LY3; format: cell-based; conditions: Homo sapiens; LY3, DLBCL, ABC (CARD11)

C=CC(=O)N1CCC[C@@H](n2nc(-c3ccc(Oc4ccccc4)cc3)c3c(N)ncnc32)C1 [PCI-32765, (R)-1-(3-(4-amino-3-(4-phenoxyphenyl)-1H-pyrazolo[3,4-d]pyrimidin-1-yl)piperidin-1-yl)prop-2-en-1-one]
GI50 (Ramos): 5500 nM | GI50 (DHL-6): 180 nM | GI50 (WSU-NHL): 120 nM | GI50 (DHL-4): 530 nM | DLTs at the final dose level [1]: No DLTs were observed | dose limiting toxicities (DLTs) documented [1]: Two | GI50 (LY19): > 10000 nM | CXCL13 stimulated migration of Mino cells (Mino cells): significantly inhibited | GI50 (Jeko-1): > 10000 nM | reduction of plasma chemokines such as MDC, MIP-1β, and CXCL13 ([2]; after one week of treatment): 40-60% | reduction of IL-10 and TNF-α ([2]; by the end of the first cycle of treatment): 50% | reduction of chemokines MDC, MIP-1β, CXCL13 and CXCL17, on average ([2]; following one week of treatment): more than 50% | GI50 (Mino): 150 nM | inhibition at 0.1 µM (primary MCL cells): 10 to 20% | GI50 (DOHH2): 120 nM | inhibition at 0.1 µM (Jekol cells): 20 to 30% | sensitivity of DOHH2 cell line (DoHH2 cells): moderately sensitive | increase in ALC (MCL patients; Phase 2, 560 mg per day, following 2-4 weeks of drug treatment): 100-150% | reduction of tumor volumes (Sum of Perpendicular Diameters, SPD), on average (MCL patients; Phase I, MCL patients (n=9), evaluations following 2, 4 and 6 cycles): 80% | GI50 (LY10): 100 nM | AUC(0-inf) (clinical; 1.25 mg/kg, Day 1, cohort 1, 1.25 mg/kg): 181 ng·h/mL | Tmax (clinical; 1.25 mg/kg, Mean (CV) Tmax, Day 1, cohort 1, 1.25 mg/kg): 1 h | AUC(0-t) (clinical; 1.25 mg/kg, cohort 1, 1.25 mg/kg): 301 ng·h/mL | AUC(0-inf) (clinical; 5 mg/kg, Day 1, cohort 3, 5 mg/kg): 419 ng·h/mL | Tmax (clinical; 5 mg/kg, Mean (CV) Tmax, Day 1, cohort 3, 5 mg/kg): 2.3 h | AUC(0-t) (clinical; 5 mg/kg, cohort 3, 5 mg/kg): 1580 ng·h/mL | AUC(0-inf) (clinical; 8.3 mg/kg, Day 1, cohort 4, 8.3 mg/kg): 923 ng·h/mL | AUC(0-inf) (clinical; 8.3 mg/kg, Day 1, cohort CD (continuous dosing), 8.3 mg/kg): 1030 ng·h/mL | Tmax (clinical; 8.3 mg/kg, Mean (CV) Tmax, Day 1, cohort 4, 8.3 mg/kg): 1.8 h | Tmax (clinical; 8.3 mg/kg, Mean (CV) Tmax, Day 1, cohort CD (continuous dosing), 8.3 mg/kg): 2.2 h | AUC(0-t) (clinical; 8.3 mg/kg, cohort 4, 8.3 mg/kg): 2330 ng·h/mL | AUC(0-t) (clinical; 8.3 mg/kg, cohort CD (continuous dosing), 8.3 mg/kg): 1540 ng·h/mL | AUC(0-inf) (clinical; 12.5 mg/kg, Day 1, cohort 5, 12.5 mg/kg): 1550 ng·h/mL | Tmax (clinical; 12.5 mg/kg, Mean (CV) Tmax, Day 1, cohort 5, 12.5 mg/kg): 1.7 h | AUC(0-t) (clinical; 12.5 mg/kg, cohort 5, 12.5 mg/kg): 2940 ng·h/mL | AUC(0-inf) (clinical; 560 mg, Day 1, Fixed cohort, 560 mg fixed dose): 749 ng·h/mL | Tmax (clinical; 560 mg, Mean (CV) Tmax, Day 1, Fixed cohort, 560 mg fixed dose): 1.8 h | AUC(0-t) (clinical; 560 mg, Fixed cohort, 560 mg fixed dose): 1550 ng·h/mL | Tmax (clinical; […], Mean (CV) Tmax, Day 1, cohort 2, […]): 2.1 h | Tmax (clinical; time to maximum plasma concentration (Tmax), range over dose levels): 1 to 2.3 h | GI50 (LY3): > 10000 nM
